Here are results for 8 compounds from ChEMBL document CHEMBL4033603, “Spongian-16-one Diterpenes and Their Anatomical Distribution in the Australian Nudibranch Goniobranchus collingwoodi” (J Nat Prod, 2017).

What all share (assay type): functional, cell-based
One assay has as its system NCI-H460. The assay is described as follows: Cytotoxicity against human NCI-H460 cells assessed as reduction in cell viability after 48 hrs by MTT assay. The following applies: NCI-H460, 48 h. On the technique in general: Formazan colour is commonly taken as a measure of viable cells.
For the next assay, the system named is SW-620. The assay is described as follows: Cytotoxicity against human SW620 cells assessed as reduction in cell viability after 48 hrs by MTT assay. Particulars: SW-620, 48 h.
Another assay relates to HepG2. The assay can be described thus: Cytotoxicity against human HepG2 cells assessed as reduction in cell viability after 48 hrs by MTT assay. Particulars: HepG2, 48 h.
The next assay has as its system L1210. The assay can be described thus: Cytotoxicity against mouse L1210 cells assessed as reduction in cell viability.
A further assay relates to KB. The assay can be described thus: Cytotoxicity against human KB cells assessed as reduction in cell viability.

On to `CCC(=O)OC[C@]12CCCC(C)(C)[C@@H]1CC[C@@]1(C)[C@@H]3COC(=O)[C@@H]3C[C@H](OC(C)=O)[C@@H]12`, for which the IC50 with NCI-H460, with SW-620 and with HepG2 was greater than 30 µM in each case.

Turning to `CCC(=O)OC[C@]12CCCC(C)(C)[C@@H]1CC[C@@]1(C)[C@@H]3COC(=O)[C@@H]3[C@@H](OC(C)=O)C[C@@H]12`, the IC50 with NCI-H460, in the assay on SW-620 and in the assay with HepG2 was greater than 30 µM each time.

For `CC(=O)OC[C@]12CCCC(C)(C)[C@@H]1CC[C@@]1(C)[C@@H]3COC(=O)[C@@H]3[C@@H](OC(C)=O)C[C@@H]12`, the IC50 in the assay with NCI-H460, in the assay with SW-620 and in the assay with HepG2 was greater than 30 µM in each case.

As to `CCC(=O)OC[C@]12CCCC(C)(C)[C@@H]1C[C@@H](OC(=O)CC(C)C)[C@@]1(C)[C@@H]3COC(=O)[C@@H]3C[C@H](O)[C@H]21`, the IC50 in the assay on NCI-H460, in the assay with SW-620 and with HepG2 was greater than 30 µM in each case.

For the compound `CCC(=O)O[C@@H]1C[C@H]2C(=O)OC[C@H]2[C@@]2(C)[C@H]1[C@@]1(C)CCCC(C)(C)[C@@H]1C[C@H]2OC(=O)CC(C)C`, the IC50 in the assay on NCI-H460, with SW-620 and in the assay with HepG2 was greater than 30 µM each time.

Regarding `CC(=O)O[C@@H]1C[C@H]2C(C)(C)CCC[C@]2(C)[C@H]2CC[C@H]3C(=O)OC[C@H]3[C@@]21C`, the IC50 with L1210 worked out at 6.1 µM; in the assay with KB, 44.1 µM.

For the compound `CC(=O)OC[C@]12CCCC(C)(C)[C@@H]1CC[C@@]1(C)[C@@H]3COC(=O)[C@@H]3C[C@H](OC(C)=O)[C@@H]12`, the IC50 with NCI-H460, in the assay with SW-620 and in the assay with HepG2 was greater than 30 µM in each case.

In the case of `CC1(C)CCC[C@]2(C)[C@H]3CC[C@H]4C(=O)OC[C@H]4[C@]3(C)CC[C@@H]12`, the IC50 was found to be 16.4 µM in the assay with L1210 and 30.2 µM in the assay on KB.

The term IC50 denotes the concentration that inhibits the measured activity by half.
